Assay results as given in US7674789B2, “Compounds” (Glaxo Group Limited, priority 2005, dated 2010).
Structures can show the parent of a compound that is named as a salt.

Test system: influx of neutrophils to the lung in LPS-challenged rats
Assay: Rat LPS neutrophilia model
Type: in vivo
Details: intratracheal compound 15 min-24 hours before LPS aerosol (100 ug/ml, 15 min), lavage 4 hours later, in at least one of the range of conditions tested
Experimental: Rat LPS Neutrophilia Model
The effect of compounds on the influx of neutrophils to the lung in LPS-challenged rats is evaluated as follows. The test compound is suspended in one of the following solutions: 0.5% tween 80/PBS, 0.5% tween 80/saline, 10% EtOH/saline (with pH adjusted to 2.0, or 8.0 with HCl, or unadjusted), Saline @ pH 2.0, 6.5 or 8.0, 0.5% Tragacanth, 1% DMSO/20% Encapsin/Saline, or acidified 5% Tragacanth. The suspension process may be aided by the use of a glass homogenizer. For intratracheal administration, the animals are anesthetized with inhaled isoflurane and placed in a supine position, the trachea is intubated with a steel gavage needle (1.5 inch, 22 gauge, small ball) or a Penn-Century Microsprayer Aerosolizer (model IA-1B) and 200 ul of dosing solution is delivered. The animals are visually monitored during the recovery process, which typically occurs within two minutes.
Rats treated with compound or vehicle (15 min-24 hours pretreatment) are exposed to an LPS aerosol (100 ug/ml) for 15 min. Four hours later the rats are euthanized with pentobarbital (100 mg/kg, i.p.) and the airways are lavaged with 5 washes of 5 ml of phosphate buffered saline. The harvested cells are stained (Diffquick) and counted to determine total and differential cell data. In a typical study, macrophages represent 40-70% of the total cells, and polymorphonuclear cells 30-60% of the total cells. Inhibition of neutrophil levels relative to no compound controls is calculated based on the differential counts.
The assay has varying conditions, such as concentration, pretreat time, form of the compound (crystalline, amorphous, salts, micronised), and a wet or dry application of the compound. The data is obtained as % inhibition using a particular concentration and pretreat time.

Row | Compound | inhibition of neutrophilia (neutrophil influx to the lung)
1 | Cc1ccc(C(=O)NCc2ccccc2)cc1-c1nc(N2CCN(C)CC2)nc2c1CNC(=O)N2c1c(F)cccc1F [Example 148, 3-[8-(2,6-difluorophenyl)-2-(4-methyl-1-piperazinyl)-7-oxo-5,6,7,8-tetrahydropyrimido[4,5-d]pyrimidin-4-yl]-4-methyl-N-(phenylmethyl)benzamide] | statistically nonsignificant inhibition of neutrophilia
2 | Cc1ccc(C(=O)NCc2ccccc2)cc1-c1nc(NCCCN(C)C)nc2c1CNC(=O)N2c1c(F)cccc1F [Example 151, 3-(8-(2,6-difluorophenyl)-2-{[3-(dimethylamino)propyl]amino}-7-oxo-5,6,7,8-tetrahydropyrimido[4,5-d]pyrimidin-4-yl)-4-methyl-N-(phenylmethyl)benzamide] | statistically nonsignificant inhibition of neutrophilia
3 | CNC(=O)c1ccc(C)c(-c2nc(NCCCN(C)C)nc3c2CNC(=O)N3c2c(F)cccc2F)c1 [Example 166, 3-(8-(2,6-difluorophenyl)-2-{[3-(dimethylamino)propyl]amino}-7-oxo-5,6,7,8-tetrahydropyrimido[4,5-d]pyrimidin-4-yl)-N,4-dimethylbenzamide] | statistically nonsignificant inhibition of neutrophilia
4 | CCN(CC)CCCNc1nc(-c2cc(C(=O)NC)ccc2C)c2c(n1)N(c1c(F)cccc1F)C(=O)NC2 [Example 172, 3-[2-{[3-(diethylamino)propyl]amino}-8-(2,6-difluorophenyl)-7-oxo-5,6,7,8-tetrahydropyrimido[4,5-d]pyrimidin-4-yl]-N,4-dimethylbenzamide] | statistically nonsignificant inhibition of neutrophilia
5 | CNC(=O)c1ccc(C)c(-c2nc(N(C)CCCN(C)C)nc3c2CNC(=O)N3c2c(F)cccc2F)c1 [Example 174, 3-{8-(2,6-difluorophenyl)-2-[[3-(dimethylamino)propyl](methyl)amino]-7-oxo-5,6,7,8-tetrahydropyrimido[4,5-d]pyrimidin-4-yl}-N,4-dimethylbenzamide] | inactive
6 | CNC(=O)c1ccc(C)c(-c2nc(N3CCC(N4CCCC4)CC3)nc3c2CNC(=O)N3c2c(F)cccc2F)c1 [Example 175, 3-{8-(2,6-difluorophenyl)-7-oxo-2-[4-(1-pyrrolidinyl)-1-piperidinyl]-5,6,7,8-tetrahydropyrimido[4,5-d]pyrimidin-4-yl}-N,4-dimethylbenzamide] | inactive
7 | CNC(=O)c1ccc(C)c(-c2nc(N3CCC(N4CCCCC4)CC3)nc3c2CNC(=O)N3c2c(F)cccc2F)c1 [Example 176, 3-[2-(1,4′-bipiperidin-1′-yl)-8-(2,6-difluorophenyl)-7-oxo-5,6,7,8-tetrahydropyrimido[4,5-d]pyrimidin-4-yl]-N,4-dimethylbenzamide] | statistically nonsignificant inhibition of neutrophilia
8 | Cc1ccc(C(=O)NC(C)C)cc1-c1nc(N2CCCN(C)CC2)nc2c1CNC(=O)N2c1c(F)cccc1F [Example 179, 3-[8-(2,6-difluorophenyl)-2-(4-methylhexahydro-1H-1,4-diazepin-1-yl)-7-oxo-6,7,8-tetrahydropyrimido[4,5-d]pyrimidin-4-yl]-4-methyl-N-(1-methylethyl)benzamide trifluoroacetate] | statistically nonsignificant inhibition of neutrophilia
9 | Cc1ccc(C(=O)NC(C)C)cc1-c1nc(NC2CCN(Cc3ccccc3)CC2)nc2c1CNC(=O)N2c1c(F)cccc1F [Example 200, 3-(8-(2,6-difluorophenyl)-7-oxo-2-{[1-(phenylmethyl)-4-piperidinyl]amino}-5,6,7,8-tetrahydropyrimido[4,5-d]pyrimidin-4-yl)-4-methyl-N-(1-methylethyl)benzamide] | statistically significant inhibition of neutrophilia

Test system: IL-6, IL-8, GM-CSF, RANTES and COX-2
Assay: not given
Details: a number of different cell types; cited from earlier work

Row | Compound | decreasing the synthesis of pro-inflammatory proteins including IL-6, IL-8, GM-CSF, RANTES and COX-2
10 | C[S+]([O-])c1ccc(-c2nc(-c3ccncc3)c(-c3ccc(F)cc3)[nH]2)cc1 (stereo not drawn) [SB-203580] | effective
11 | Fc1ccc(-c2nc3n(c2-c2ccncc2)CCS3)cc1 [SK&F 86002] | effective

Test system: TGF-β-induced fibronectin and thrombospondin
Assay: not given
Details: Laping et al., 2002, Molec. Pharmacol. 62:58-64; cited from earlier work

Row | Compound | effect on TGF-β-induced increases in fibronectin and thrombospondin
12 | COc1nccc(-c2c(-c3ccc(F)cc3)ncn2C2CCNCC2)n1 [SB-242235] | inhibited
